“Also recorded” adds a separate entry of the source.
Tests used:
[1] = tested on: AKR1B10 (ARL-1) secretion; assay: ARL-1 secretion into culture medium (sandwich ELISA and Western blot); assay type: cell-based, human
Method: Soluble proteins are secreted by either the classical or nonclassical pathway (Nickel et al., Eur J. Biochem. 270: 2109-2119, 2003). In the classical protein secretion pathway, a secretory protein is translocated by an N-terminal signal peptide into endoplasmic reticulum and Golgi complex concomitant with protein synthesis. Thus, this pathway is affected by inhibitors of protein synthesis and protein transport from ER to Golgi. […] HCT-8 cells (1.25×10^5) were cultured in 12-well plates overnight and the next day the cells were exposed to 15 μg/ml of protein synthesis inhibitor cycloheximide in fresh serum-free medium. Medium was collected at different time points for sandwich ELISA and Western blot analysis. […] Next, the effects of an ER-Golgi pathway inhibitor were examined. HCT-8 and NCI-460 cells (1.25×10^5) were cultured in 12-well plates overnight and then exposed to an ER-Golgi protein transport inhibitor brefeldin A at 0, 2, or 10 μg/ml in fresh serum-free medium for 6 hour. Medium was collected for sandwich ELISA and Western blot analysis. […] Statistic analysis was performed using Student's t test or Chi square tests, as appropriate, with INSTAT statistical analysis package (Graph Pad Software, CA), for statistical significance at p<0.05.
At 30 min before harvest, ATP (1 mM) was added and the medium was subjected to sandwich ELISA and Western blot analysis. In addition, HCT-8 cells (1.25×10^5) were seeded into 12-well plates and exposed to Ca^2+ ions (100 μM) or ionomycin at 1 or 2 μM in serum-free medium for 30 min and the medium was harvested for sandwich ELISA and Western blot analysis. […]
Proteins that are secreted via the lysosome-mediated pathway are often translocated into lysosomes by the ABC transporters (Hamon et al., Blood 90: 2911-2915, 1997). To understand the transmembrane mechanism of ARL-1, HCT-8 cells (1.25×10^5) were cultured in 12-well plates overnight and then exposed to ABC transporter inhibitor GLIB (glibenclamide) or DIDS (4,4′-diisothiocyanatostilbene-2,2′-disulfonic acid) (Sigma, Mo.) in serum-free medium for 2 hours. ATP (1 mM) was added 30 min before harvest. Medium and cells were collected for sandwich ELISA and Western blot analysis.

HCT-8 cells = assay: Mechanism of acrolein-induced cell death in HCT-8 cells with ARL-1 knockdown (flow cytometry, LDH efflux); assay type: cell-based, human; conditions: 25 μM
Method: The mechanisms of cell death induced by reactive carbonyls were investigated by flow cytometry and lactate dehydrogenase leakage assay. For flow cytometry assay, cells (with ARL-1 knockdown) were incubated with acrolein (25 μM) for 24 hours. After medium was gently removed, cells were washed with cold PBS and trypsinized. Cells in PBS and trypsin digestion were pooled, washed with PBS twice at 1200 rpm for 10 min, and then subjected to immediate propidium iodide (PI) and annexin V-FITC staining for 10 minutes in the dark as set forth in Yuan et al. (2004, Oncogene 23: 5843-5852, 2004). FACScan analysis was performed using a FACScan cytometer (Becton Dickinson, Calif.).
For lactate dehydrogenase (LDH) efflux assays, cells were plated at 5×10^4 cells/well in 12-well plates and exposed to 25 μM of acrolein for 12 hours. Medium was collected and cells were lysed for 10 min in 0.5% (v/v) Triton X-100 in 0.1 M potassium phosphate buffer (pH 7.4). Supernatants were collected by centrifugation at 10,000×g for 5 min. LDH activity in medium and cell lysates was measured using LDH assay kit (Roche, Ind.). […] Absorbance at 490 nm was read in a microplate reader (Bio-Rad, CA), with 650 nm as a reference wavelength. LDH release was calculated as: LDH release (%)=[LDH in medium/(LDH in medium+LDH in cell lysate)]×100 (Koh and Choi, 1987, J Neurosci Methods 20: 83-90).

[2] = HCT-8 cells, serum-free medium 2 hours, ATP 1 mM added 30 min before harvest
[3] = HCT-8 cells, serum-free medium, ATP 1 mM 30 min before harvest, Mg2+ 2 mM and/or EDTA 1 mM for 2 hours
[4] = HCT-8 cells, serum-free medium 30 min, Ca2+ ions 100 μM, ionomycin 1 or 2 μM

**Q.** Which ARL-1 secretion [1, 2] does the source give for `O=S(=O)(O)c1cc(N=C=S)ccc1C=Cc1ccc(N=C=S)cc1S(=O)(=O)O` [DIDS, 4,4′-diisothiocyanatostilbene-2,2′-disulfonic acid] here?
**A.** The ARL-1 secretion was “suppressed”.

**Q.** For `[Mg+2]` [Mg^2+], which ARL-1 secretion [1, 3] is on record?
**A.** Its ARL-1 secretion is “blocked”.

**Q.** For `C[C@H](CCC(=O)O)C[C@H](C)C[C@H](C)C(=O)/C=C(\O)[C@H](C)C[C@H](C)C/C=C/[C@@H](C)[C@@H](O)[C@@H](C)[C@@H](O)C[C@@H]1CC[C@@](C)([C@H]2CC[C@@](C)([C@@H](C)O)O2)O1` [ionomycin], which ARL-1 secretion [1, 4] is on record?
**A.** The ARL-1 secretion was “significantly stimulated”.

**Q.** Which ARL-1 secretion ([1]; HCT-8 cells, 15 μg/ml, serum-free medium, up to 8 hours) does the source give for `C[C@@H]1C[C@@H]([C@H](O)CC2CC(=O)NC(=O)C2)C(=O)[C@@H](C)C1` [cycloheximide] here?
**A.** The ARL-1 secretion was “not affected; also recorded: did not significantly affect secretion”.

**Q.** For `Nc1ncnc2c1ncn2[C@@H]1O[C@H](COP(=O)(O)OP(=O)(O)OP(=O)(O)O)[C@@H](O)[C@H]1O` [ATP], which ARL-1 secretion [1, 4] is on record?
**A.** The ARL-1 secretion was “synergistic role in Ca^2+-mediated stimulation”.

**Q.** And the ARL-1 secretion [1, 3]?
**A.** The ARL-1 secretion was “significantly stimulated”.

**Q.** With `C[C@H]1CCC/C=C/[C@@H]2C[C@H](O)C[C@H]2[C@H](O)/C=C/C(=O)O1` [brefeldin A] as the compound, how does the ARL-1 secretion ([1]; HCT-8 and NCI-460 cells, 0, 2, or 10 μg/ml, serum-free medium, 6 hour) read?
**A.** The ARL-1 secretion was “not affected; also recorded: did not significantly affect secretion”.

**Q.** For `C=CC=O` [acrolein], which “features of induced cell death” value (HCT-8 cells) is on record?
**A.** The value was “LDH efflux and annexin V staining, a characteristic of oncosis”.

**Q.** With `COc1ccc(Cl)cc1C(=O)NCCc1ccc(S(=O)(=O)NC(=O)NC2CCCCC2)cc1` [GLIB, glibenclamide] as the compound, how does the ARL-1 secretion [1, 2] read?
**A.** Its ARL-1 secretion is “suppressed”.

**Q.** `[Ca+2]` [Ca^2+ ions] was tested. Which ARL-1 secretion [1, 4] did it give?
**A.** Its ARL-1 secretion is “significantly stimulated”.

**Q.** Which results are given for `Cl.N` [NH4Cl]?
**A.** ARL-1 secretion ([1]; 50 mM added simultaneously with the fresh serum-free medium): increased; ARL-1 in freshly fed serum-free medium compared with control ([1]; 50 mM for 2 hours before switch to fresh serum-free medium): significant decrease

— patent US8685666B2, “ARL-1 specific antibodies and uses thereof” (The Board of Trustees of Southern Illinois University, priority 2007, dated 2014)
